Measurements: US20070184165A1, “Compositions and methods for improving the efficiency of preservatives in foods” (RAD NATURAL TECHNOLOGIES LTD., priority 2003, published 2007)

Key:
mold = experiment: Deterioration of whole wheat flour due to mold, measured by carbon dioxide formation; conditions: for carbon dioxide formation: 22% moisture, 30° C.
Method: Whole wheat flour which contained 22% moisture was maintained at a temperature of 30° C. The deterioration due to mold formation was measured by determining the amount (%) of carbon dioxide which formed over a ten day period or until the maximum of 15-16% was attained, whichever was the sooner.

salmonella = experiment: Inhibition of salmonella growth; type: cell-based; conditions: control growth at 8 hours = 100%
Method: The inhibition of salmonella growth was determined for the title combination and this was compared with control (absence of inhibitors) and using separately, sodium rosmarinate and sodium acetate. The results are as follows, comparing the inhibition of growth effect of inhibitors, control growth being taken arbitrarily at 8 hours, as 100%: […]

[1] = Inhibition of oxidative deterioration in soybean oil at 180° C. (hexanal and trans-decadienal formed); conditions: four hours, 0.02%
Method: (c) Inhibition of oxidative deterioration in soybean oil at 180° C. (four hours) was determined by dissolving Origanox™ OS-A, rosemary oil or TBHQ in the soybean oil and determining the amount of hexanal and trans-decadienal formed in the product, compared with a control in which no antioxidant was used.

[2] = Myoglobin stabilization (colour intensity) in treated fresh beef; conditions: after seven days, 250 ppm
Method: (c) Fresh beef was treated, by injection, with “Origanox™ WS-A” (b)(i), above. The thus-treated fresh beef product contained approximately 32.5 ppm sodium rosmarinate and 250 ppm ascorbic acid. The product was tested for myoglobin stabilization by measuring absorption, i.e. intensity of color, at 542 nm, after seven days.

[3] = Freshness of cured beef by formation of malondialdehyde
Method: (d) Cured beef was treated with “Origanox™ WS-A” (b(ii), above). The thus-treated cured beef product contained approximately 32.5 ppm sodium rosmarinate and 500 ppm ascorbic acid. The higher proportion of ascorbic acid in this case was to inhibit the formation of toxic nitrosamines. The product was tested for freshness as evidenced by the formation of malondialdehyde after 1, 4 and 7 days, and compared with control (no treatment) and with other treatments.

CCC(=O)[O-].CCC(=O)[O-].[Ca+2] [Ca propionate, calcium propionate]
time until maximum % carbon dioxide (maximum deterioration) was reached (mold; 0.2%): 7 to 8 days
carbon dioxide formation (mold; Day 0, 0.2%): 0.54%
carbon dioxide formation (mold; Day 1, 0.2%): 0.81%
carbon dioxide formation (mold; Day 2, 0.2%): 1.1%
carbon dioxide formation (mold; Day 3, 0.2%): 1.3%
carbon dioxide formation (mold; Day 4, 0.2%): 2.0%
carbon dioxide formation (mold; Day 5, 0.2%): 3.2%
carbon dioxide formation (mold; Day 6, 0.2%): 6.5%
carbon dioxide formation (mold; Day 7, 0.2%): 14.6%
carbon dioxide formation (mold; Day 8, 0.2%): 15%

CC(=O)[O-].[Na+] [Sodium acetate]
% Growth (salmonella; 4 hours, 1.0%): 33%
% Growth (salmonella; 4 hours, 2.0%): 17%
% Growth (salmonella; 8 hours, 1.0%): 75%
% Growth (salmonella; 8 hours, 2.0%): 62%

CC(C)(C)c1cc(O)ccc1O [TBHQ]
% Inhibition [1]: 32%

O=C1O[C@H]([C@@H](O)CO)C(O)=C1O [ascorbic acid]
absorption at 542 nm [2]: 0.513
Formation of malondialdehyde ([3]; day 1, 500 ppm): 0.788 mg/kg
Formation of malondialdehyde ([3]; day 4, 500 ppm): 1.224 mg/kg
Formation of malondialdehyde ([3]; day 7, 500 ppm): 1.944 mg/kg

O=C(/C=C/c1ccc(O)c(O)c1)O[C@H](Cc1ccc(O)c(O)c1)C(=O)O [sodium rosmarinate]
Formation of malondialdehyde ([3]; day 1, 32.5 ppm): 0.798 mg/kg
Formation of malondialdehyde ([3]; day 4, 32.5 ppm): 1.097 mg/kg
Formation of malondialdehyde ([3]; day 7, 32.5 ppm): 1.327 mg/kg
